The results in this text go back to patent publication EP2769738B1, “Conjugated TLR7 and/or TLR8 and TLR2 polycationic agonists” (Invivogen, priority 2013, dated 2014).

Structures are written as SMILES.

In one assay the target is T1, human TLR7 (Homo sapiens, UniProt Q9NYK1).
T1 construct: host or cells: HEK293 (ATCC, CRL-1573), HEK-Blue hTLR7
T1 sequence (Q9NYK1 27-1049): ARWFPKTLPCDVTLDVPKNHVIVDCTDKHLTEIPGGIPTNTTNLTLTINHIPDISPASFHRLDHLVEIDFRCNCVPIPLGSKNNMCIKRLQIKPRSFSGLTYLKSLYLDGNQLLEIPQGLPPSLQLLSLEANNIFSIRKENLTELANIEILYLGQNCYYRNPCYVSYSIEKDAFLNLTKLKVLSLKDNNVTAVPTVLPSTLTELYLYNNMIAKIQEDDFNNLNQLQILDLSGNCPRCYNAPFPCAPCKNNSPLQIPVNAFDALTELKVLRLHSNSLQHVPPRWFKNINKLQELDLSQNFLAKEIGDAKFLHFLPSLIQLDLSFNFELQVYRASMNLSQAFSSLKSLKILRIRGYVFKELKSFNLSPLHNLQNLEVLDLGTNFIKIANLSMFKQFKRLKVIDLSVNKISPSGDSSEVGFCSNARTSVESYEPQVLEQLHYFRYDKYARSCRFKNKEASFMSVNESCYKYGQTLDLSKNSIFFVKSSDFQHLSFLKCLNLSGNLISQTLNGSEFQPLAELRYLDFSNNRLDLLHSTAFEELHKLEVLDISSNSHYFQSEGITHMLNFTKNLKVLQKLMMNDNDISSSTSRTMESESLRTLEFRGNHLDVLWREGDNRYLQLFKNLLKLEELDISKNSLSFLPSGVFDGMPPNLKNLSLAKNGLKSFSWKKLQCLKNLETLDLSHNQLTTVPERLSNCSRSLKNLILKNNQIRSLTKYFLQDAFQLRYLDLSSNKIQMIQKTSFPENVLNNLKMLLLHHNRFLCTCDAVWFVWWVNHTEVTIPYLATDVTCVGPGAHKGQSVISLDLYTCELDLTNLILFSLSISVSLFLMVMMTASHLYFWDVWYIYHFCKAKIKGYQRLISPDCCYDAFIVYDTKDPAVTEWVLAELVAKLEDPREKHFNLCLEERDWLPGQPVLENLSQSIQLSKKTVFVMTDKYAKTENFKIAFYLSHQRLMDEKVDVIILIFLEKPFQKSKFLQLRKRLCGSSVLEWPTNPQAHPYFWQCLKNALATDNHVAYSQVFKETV
As to the kind of experiment: HEK-Blue hTLR7 NF-κB/AP-1-inducible SEAP reporter cell assay. It is filed as cell-based. The settings on record: Figure 1; 10 µg/mL to 10 pg/ml, 24 hours, SEAP read as OD at 655 nm. An excerpt:
(§1) Assays for detecting TLR7, TLR8 or TLR2 activity are known in the art and include for example cell-based assays using respectively TLR7, TLR8 or TLR2 reporter cell lines (InvivoGen). The reporter cell lines are engineered HEK293 cells, a human embryonic kidney cell line (ATCC, CRL-1573) that stably express either murine TLR7 (HEK-Blue™ mTLR7) or human TLR7 (HEK-Blue™ hTLR7), human TLR8 (HEK-Blue™ hTLR8) or human TLR2 (HEK- Blue™ hTLR2) with an NF-κB-inducible secreted embryonic alkaline phosphatase (SEAP) as the reporter gene.
(§2) Cell-based assays were carried out using TLR7 and TLR2 reporter cell lines (InvivoGen). The reporter cell lines are engineered HEK293 cells, a human embryonic kidney cell line (ATCC, CRL-1573) that stably express either murine TLR7 (HEK-Blue™ mTLR7) or human TLR7 (HEK-Blue™ hTLR7) or human TLR2 (HEK- Blue™ hTLR2) with an NF-κB-inducible secreted embryonic alkaline phosphatase (SEAP) as the reporter gene. The SEAP reporter gene is under the control of the NF-κB and AP-1-inducible promoter, which, upon treatment with a corresponding TLR ligand and activation of NF-κB and AP-1, induces the production of SEAP. Detection of SEAP is measured following culturing cells in HEK-Blue™ Detection media (InvivoGen). HEK-Blue™ Detection contains a SEAP substrate that when hydrolysed by SEAP produces a colorimetric change allowing for detection of SEAP as the protein is secreted. […] These assays were carried out using RAW-Blue™ Cells (InvivoGen), derived from RAW 264.7 mouse leukemic monocyte macrophage cell line (ATCC, CRL 2278) stably overexpressing a NF-κB /AP-1 inducible SEAP reporter constructs.
(§3) To perform the assay, cells were seeded on 96 well microliter plates at 50,000 or 100,000 cells per well for HEK-Blue™ Cells and RAW-Blue™ Cells respectively, and cultured at 37 °C in the presence of the conjugated compounds The TLR7-TLR2 polyamine molecules were prepared as follows: First, stock solutions of the conjugated compounds of the invention were prepared in ethanol or water to a concentration of 10 mg/ml.
(§4) The working dilutions of the conjugated TLR7-TLR2 polyamine agonists made up in water or PBS were directly added to the reporter cell lines at a final concentration ranging from 10 µg/mL to 10 pg/ml and incubated at 37 °C for 24 hours. After 24 hours of incubation, the effect on reporter gene activity was determined by reading the OD at 655 nm using iMark™ Microplate Reader (BIO-RAD).

Assay [1] has as its system endogenous TLR2 and TLR7 in RAW-Blue™ Cells. Description: RAW-Blue Cells NF-κB/AP-1 SEAP reporter assay (endogenous receptors). It is filed as cell-based, mouse. The conditions noted are these: Figure 4; 10 µg/mL to 10 pg/ml, 24 hours, SEAP read as OD at 655 nm. Here is the method: as §2, §3, §4
For orientation: In a reporter assay the amount or activity of a reporter protein is the signal.

In a further assay the target is T2, human TLR2 (Homo sapiens, UniProt O60603).
T2 construct: host or cells: HEK293 (ATCC, CRL-1573), HEK-Blue hTLR2
Description: HEK-Blue hTLR2 NF-κB/AP-1-inducible SEAP reporter cell assay. Format: cell-based. The conditions noted are these: Figure 3; 10 µg/mL to 10 pg/ml, 24 hours, SEAP read as OD at 655 nm.
From the text: as §1, §2, §3, §4

T2 sequence (O60603 21-784): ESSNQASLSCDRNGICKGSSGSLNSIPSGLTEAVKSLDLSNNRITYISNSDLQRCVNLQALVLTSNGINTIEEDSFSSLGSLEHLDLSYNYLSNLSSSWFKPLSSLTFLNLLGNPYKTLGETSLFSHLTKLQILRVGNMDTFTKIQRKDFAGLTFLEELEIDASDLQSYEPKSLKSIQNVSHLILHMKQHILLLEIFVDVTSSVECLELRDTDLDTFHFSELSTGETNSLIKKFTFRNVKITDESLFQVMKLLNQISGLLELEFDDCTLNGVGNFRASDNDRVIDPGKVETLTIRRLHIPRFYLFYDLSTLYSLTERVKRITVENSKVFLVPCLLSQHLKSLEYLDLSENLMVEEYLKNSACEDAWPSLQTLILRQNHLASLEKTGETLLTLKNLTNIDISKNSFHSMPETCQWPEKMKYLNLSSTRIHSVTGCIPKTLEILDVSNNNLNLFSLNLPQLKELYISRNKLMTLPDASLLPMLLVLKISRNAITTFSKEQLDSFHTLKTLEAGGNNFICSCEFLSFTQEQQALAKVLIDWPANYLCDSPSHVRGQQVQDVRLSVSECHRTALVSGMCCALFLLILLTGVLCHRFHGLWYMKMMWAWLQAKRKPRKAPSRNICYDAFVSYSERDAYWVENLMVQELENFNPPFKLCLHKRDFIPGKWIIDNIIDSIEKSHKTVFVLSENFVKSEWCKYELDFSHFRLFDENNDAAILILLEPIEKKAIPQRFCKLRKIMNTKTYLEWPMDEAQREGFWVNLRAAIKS

Regarding `CCCCCCCCCCCCCCCC(=O)OCC(CSC[C@H](N)C(=O)N[C@@H](CCCCNC(=O)CNC(=O)c1ccc(Cn2c(O)nc3c(N)nc(NCCCC)nc32)cc1)C(=O)NCCCNCCCCNCCCN)OC(=O)CCCCCCCCCCCCCCC` (stereo partly drawn) [CL475, (6R,9S)-6,23-diamino-9-(4-(2-(4-((6-amino-2-(butylamino)-8-hydroxy-9H-purin-9-yl)methyl)benzamido)acetamido)butyl)-7,10-dioxo-4-thia-8,11,15,20-tetraazatrico sane-1,2-diyl dipalmitate], on human TLR7, the “ability to activate hTLR7” value is listed as “activate hTLR7”. For the same compound, in assay [1], the “ability to activate endogenous TLR2 and TLR7 in RAW-Blue™ Cells” value (“ability … in RAW-Blue™ Cells” for short) is “activate endogenous TLR2 and TLR7”. Further, at human TLR2, the “ability to activate hTLR2” value is “activate hTLR2”.
With `CCCCCCCCCCCCCCCC(=O)OCC(CSC[C@H](N)C(=O)NCCCC[C@H](NC(=O)c1ccc(Cn2c(O)nc3c(N)nc(NCCCC)nc32)cc1)C(=O)NCCCNCCCCNCCCN)OC(=O)CCCCCCCCCCCCCCC` (stereo partly drawn) [CL486, (6R,13S)-6,27-diamino-13-(4-((6-amino-2-(butylamino)-8-hydroxy-9H-purin-9-yl)methyl)benzamido)-7,14-dioxo-4-thia-8,15,19,24-tetraazaheptacosane-1,2-diyl dipalmitate], at human TLR7, the “ability to activate hTLR7” value was “activate hTLR7”. In addition, in assay [1], the “ability … in RAW-Blue™ Cells” value is “activate endogenous TLR2 and TLR7”. Besides, the “ability to activate hTLR2” value at human TLR2 is recorded as “activate hTLR2”.
On to `CCCCCCCCCCCCCCCC(=O)OCC(CSC[C@H](N)C(=O)NCCCC[C@H](NC(=O)CNC(=O)c1ccc(Cn2c(O)nc3c(N)nc(NCCCC)nc32)cc1)C(=O)NCCCNCCCCNCCCN)OC(=O)CCCCCCCCCCCCCCC` (stereo partly drawn) [CL487, (6R,13S)-6,27-diamino-13-(2-(4-((6-amino-2-(butylamino)-8-hydroxy-9H-purin-9-yl)methyl)benzamido)acetamido)-7,14-dioxo-4-thia-8,15,19,24-tetraazaheptacosane-1,2-diyl dipalmitate], for which, at human TLR7, the “ability to activate hTLR7” value was “activate hTLR7”. Moreover, the “ability … in RAW-Blue™ Cells” value in assay [1] was “activate endogenous TLR2 and TLR7”. Besides, the “ability to activate hTLR2” value on human TLR2 was “activate hTLR2”.
Turning to `CCCCCCCCCCCCCCCC(=O)OCC(CSC[C@H](N)C(=O)N[C@@H](COC(=O)c1ccc(Cn2c(O)nc3c(N)nc(NCCCC)nc32)cc1)C(=O)NCCCNCCCCNCCCN)OC(=O)CCCCCCCCCCCCCCC` (stereo partly drawn) [CL514, (6R,9S)-6,23-diamino-9-((4-((6-amino-2-(butylamino)-8-hydroxy-9H-purin-9-yl)methyl)benzoyloxy)methyl)-7,10-dioxo-4-thia-8,11,15,20-tetraazatricosane-1,2-diyl dipalmitate], the “ability to activate hTLR7” value on human TLR7 is “activate hTLR7”. In addition, the “ability … in RAW-Blue™ Cells” value in assay [1] was “activate endogenous TLR2 and TLR7”. For the same compound, the “ability to activate hTLR2” value at human TLR2 was “activate hTLR2”.
`CCCCCCCCCCCCCCCC(=O)OCC(CSC[C@H](N)C(=O)N[C@@H](CCC(=O)NCCCNCCCCNCCCN)C(=O)Nc1ccc(Cn2c(O)nc3c(N)nc(NCCCC)nc32)cc1)OC(=O)CCCCCCCCCCCCCCC` (stereo partly drawn) [CL527, (6R,9S)-6,25-diamino-9-(4-((6-amino-2-(butylamino)-8-hydroxy-9H-purin-9-yl)methyl)phenylcarbamoyl)-7,12-dioxo-4-thia-8,13,17,22-tetraazapentacosane-1,2-diyl dipalmitate]: on human TLR7, the “ability to activate hTLR7” value is “activate hTLR7”. The “ability … in RAW-Blue™ Cells” value in assay [1] was “activate endogenous TLR2 and TLR7”. Moreover, the “ability to activate hTLR2” value on human TLR2 is recorded as “activate hTLR2”.
For `CCCCCCCCCCCCCCCC(=O)OCC(CSC[C@H](N)C(=O)NCCCNCCCCNCCCNC(=O)CNC(=O)c1ccc(Cn2c(O)nc3c(N)nc(NCCCC)nc32)cc1)OC(=O)CCCCCCCCCCCCCCC` (stereo partly drawn) [CL553, (20R)-20-amino-1-(4-((6-amino-2-(butylamino)-8-hydroxy-9H-purin-9-yl)methyl)phenyl)-1,4,19-trioxo-22-thia-2,5,9,14,18-pentaazapentacosane-24,25-diyl dipalmitate], the “ability to activate hTLR7” value at human TLR7 is “activate hTLR7”. Moreover, the “ability … in RAW-Blue™ Cells” value in assay [1] is “activate endogenous TLR2 and TLR7”. Moreover, the “ability to activate hTLR2” value on human TLR2 is “activate hTLR2”.
